What was measured:
LXRβ full length (FL) = molecular target: T1, LXRβ full length (FL) (Homo sapiens, UniProt P55055, INS174Q); assay: LXR Gal4 reporter transient transfection assay, mammalian two-hybrid, FL-M2H Gal4β; assay type: cell-based; details: HEK293 cells; inverse agonist unless *
T1 construct: the full length (FL) proteins of LXRα (amino acids 1-447); NP005684; NP009052; expressed in transfected cells; host or cells: HEK293
T1 sequence (P55055 with tags, fused parts or gaps INS174Q): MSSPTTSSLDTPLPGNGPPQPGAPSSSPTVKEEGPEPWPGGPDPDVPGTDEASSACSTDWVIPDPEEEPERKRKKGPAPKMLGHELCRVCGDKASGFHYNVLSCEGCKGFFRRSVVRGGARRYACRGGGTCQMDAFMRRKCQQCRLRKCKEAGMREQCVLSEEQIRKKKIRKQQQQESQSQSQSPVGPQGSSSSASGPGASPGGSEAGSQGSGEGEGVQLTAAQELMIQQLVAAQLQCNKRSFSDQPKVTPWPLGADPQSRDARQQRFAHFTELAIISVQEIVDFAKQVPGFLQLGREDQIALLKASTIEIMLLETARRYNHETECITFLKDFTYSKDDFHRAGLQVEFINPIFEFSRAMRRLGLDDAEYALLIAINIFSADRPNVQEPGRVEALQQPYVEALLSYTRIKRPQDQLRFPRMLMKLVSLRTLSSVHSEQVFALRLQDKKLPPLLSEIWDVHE
Summary of the method: (§1)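 Mammalian two-hybrid read-out: interaction of LXRα or LXRβ (full length or ligand-binding domain, NFkB activation-domain fusions) with GAL4-fused SRC1 or NCoR domains drives GAL4-responsive firefly luciferase in HEK293 cells, normalised by Renilla cotransfection. Compounds given 4 h after transfection, ≤0.2% vehicle, cells lysed after 16 h.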

[1] = molecular target: T2, GST-LXRβ ligand-binding domain (Homo sapiens, UniProt P55055, INS174Q); assay: TR-FRETβ activity assay (NCoA3 coactivator peptide recruitment); assay type: biochemical; details: 1 μM 24(S)-25-epoxycholesterol as prestimulating agonist; inverse agonist unless *
T2 construct: amino acids 156-461; NP009052; made in house; host or cells: E. coli
T2 sequence (P55055 with tags, fused parts or gaps INS174Q limits assumed): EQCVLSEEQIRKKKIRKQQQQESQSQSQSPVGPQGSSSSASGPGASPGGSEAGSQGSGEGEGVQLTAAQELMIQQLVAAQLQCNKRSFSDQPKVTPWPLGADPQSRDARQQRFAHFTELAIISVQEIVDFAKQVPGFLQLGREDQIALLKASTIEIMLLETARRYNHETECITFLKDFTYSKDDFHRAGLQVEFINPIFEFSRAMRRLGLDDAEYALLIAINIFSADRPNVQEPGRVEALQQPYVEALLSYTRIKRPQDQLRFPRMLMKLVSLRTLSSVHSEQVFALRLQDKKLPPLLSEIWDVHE
Summary of the method: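 Coactivator recruitment read as TR-FRET (ex 340, em 615 and 665 nm) after 1 h equilibration at 4° C, in triplicate. Mix held 76 nM GST-tagged LXRβ LBD (aa 156-461, E. coli), 400 nM biotin-NCoA3 peptide, Tb-cryptate anti-GST, streptavidin-XL665, 240 mM KCl buffer.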

LXRα full length (FL) = molecular target: T3, LXRα full length (FL) (Homo sapiens, UniProt Q13133); assay: LXR Gal4 reporter transient transfection assay, mammalian two-hybrid, FL-M2H Gal4α; assay type: cell-based; details: HEK293 cells; inverse agonist unless *
T3 construct: the full length (FL) proteins of LXRα (amino acids 1-447); NP005684; expressed in transfected cells; host or cells: HEK293
T3 sequence (Q13133 1-447): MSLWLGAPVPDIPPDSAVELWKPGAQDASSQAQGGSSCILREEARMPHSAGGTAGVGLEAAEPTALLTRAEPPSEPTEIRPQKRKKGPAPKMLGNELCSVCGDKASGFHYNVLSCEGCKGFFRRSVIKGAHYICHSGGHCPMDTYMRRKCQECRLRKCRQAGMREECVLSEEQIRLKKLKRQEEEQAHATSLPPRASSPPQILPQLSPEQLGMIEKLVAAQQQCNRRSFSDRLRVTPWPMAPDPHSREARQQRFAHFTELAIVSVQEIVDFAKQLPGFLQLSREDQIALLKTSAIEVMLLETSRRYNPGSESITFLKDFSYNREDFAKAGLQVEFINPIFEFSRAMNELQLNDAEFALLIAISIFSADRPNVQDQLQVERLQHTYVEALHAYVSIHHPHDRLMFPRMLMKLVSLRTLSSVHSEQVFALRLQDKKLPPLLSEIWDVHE
Summary of the method: as §1

Structure (SMILES)	EC50 (LXRβ full length (FL)) [nM]	EC50 [1] [nM]	EC50 (LXRα full length (FL)) [nM]	FRETβ [1]
Cc1ccc2ccc(F)cc2c1C(=O)N(Cc1ccc(-c2cccc(C(C)(C)C(=O)O)c2)cc1)Cc1ccc(C(F)(F)F)o1 [27/53]	< 100	< 100	< 100	
Cc1ccc2ccccc2c1C(=O)N(Cc1ccc(C(F)(F)F)o1)Cc1ccc(-c2cccc(C(C)(C)C(=O)O)c2)cc1C(N)=O [Example 17]	100 to 1000	> 10000	1000 to 10000	
CC(C)(C(=O)O)c1cccc(-c2ccc(CN(Cc3ccc(C(F)(F)F)o3)Cc3cccc4c3CCCO4)cc2)c1 [27/16]	< 100	100 to 1000	< 100	
CC(C)(C(=O)O)c1cccc(-c2ccc(CN(Cc3ccc(C(F)(F)F)o3)C(C)(C)c3cccc4ccccc34)cc2)c1 [27/39]	< 100	< 100	100 to 1000	
CC(C)(C(=O)O)c1cccc(-c2ccc(CN(Cc3ccc(C(F)(F)F)o3)C(=O)c3c4c(nc5ccccc35)CCCC4)cc2)c1 [27/55]	< 100	100 to 1000	< 100	
CCc1cc(C)cc(C)c1CN(Cc1ccc(-c2cccc(S(=O)(=O)CC(=O)O)c2)cc1)Cc1ccc(C(F)(F)F)o1 [27/35]	100 to 1000	1000 to 10000	1000 to 10000	
Cc1cc(C)c(CN(Cc2ccc(-c3cccc(S(=O)(=O)CC(=O)O)c3)cc2)Cc2cccc(C(F)(F)F)c2)c(C)c1 [7/14]	100 to 1000	1000 to 10000	1000 to 10000	
O=C(O)CS(=O)(=O)c1cccc(-c2ccc(CN(Cc3ccc(C(F)(F)F)o3)C(=O)c3c(OC(F)F)ccc4ccccc34)cc2)c1 [27/42]	100 to 1000	100 to 1000	1000 to 10000	
Cc1nc2ccccc2c(C(=O)N(Cc2ccc(C(=O)N(C)C)o2)Cc2ncc(-c3cccc(C(C)C(=O)O)c3)cc2Cl)c1C (stereo not drawn) [27/100]	1000 to 10000	> 10000	1000 to 10000	
CC(c1cccc2ncccc12)N(Cc1ccc(-c2cccc(S(=O)(=O)CC(=O)O)c2)cc1)Cc1ccc(C(F)(F)F)o1 (stereo not drawn) [27/8]	100 to 1000	1000 to 10000	100 to 1000	
COc1ccc2ccccc2c1CN(Cc1ccc(-c2cccc(S(=O)(=O)CC(=O)O)c2)cc1)Cc1ccc(C(F)(F)F)o1 [7/5]	100 to 1000	100 to 1000	100 to 1000	
Cc1cc(C)c(CN(Cc2ccc(-c3cccc(S(=O)(=O)CC(=O)O)c3)cc2)Cc2ccc(C(F)(F)F)o2)c(C)c1C [27/34]	100 to 1000	1000 to 10000	1000 to 10000	
Cc1nc2cccnc2c(C(=O)N(Cc2ccc(-c3cccc(C(C)(C)C(=O)O)c3)cc2)Cc2nc(C(F)(F)F)cs2)c1C [27/130]	< 100	100 to 1000	< 100	
Cc1ccc2ccccc2c1C(=O)N(Cc1ccc(-c2cccc(C(C)(C)C(=O)O)c2)cc1)Cc1ccc(C(C)(C)C)o1 [27/1]	< 100	1000 to 10000	100 to 1000	
CC(C)(C(=O)O)c1cccc(-c2ccc(CN(Cc3ccc(C(F)(F)F)o3)C(=O)C3C(C)(C)CCC3(C)C)cc2)c1 [27/97]	< 100		< 100	C*
Cc1ccc2nc(C)c(C)c(C(=O)N(Cc3ccc(-c4cccc(C(C)(C)C(=O)O)c4)cc3)Cc3ccc(C(F)(F)F)o3)c2c1 [27/54]	< 100	100 to 1000	< 100	
Cc1cc(C(=O)N(Cc2ccc(-c3cccc(C(C)(C)C(=O)O)c3)cc2)Cc2ccc(C(F)(F)F)o2)c2ccc(F)cc2n1 [27/127]	100 to 1000	1000 to 10000	100 to 1000	

Structure (SMILES)	EC50 (LXRβ full length (FL)) [nM]	EC50 [1] [nM]	EC50 (LXRα full length (FL)) [nM]	FRETβ [1]
Cc1cc(C)c(CN(Cc2ccc(-c3cccc(C(C)(C)C(=O)O)c3)cc2)Cc2ccc(C(F)(F)F)o2)c2c1CCC2 [27/33]	< 100	100 to 1000	< 100	
Cc1ccc2ccccc2c1C(=O)N(Cc1ccc(C(F)(F)F)o1)Cc1ccc(-c2cncc(S(=O)(=O)CC(=O)O)c2)cc1C(F)(F)F [27/62]	100 to 1000	1000 to 10000	1000 to 10000	
Cc1nc2ccccn2c1C(=O)N(Cc1ccc(-c2cccc(C(C)(C)C(=O)O)c2)cc1)Cc1ccc(C(F)(F)F)o1 [27/118]	100 to 1000	100 to 1000	100 to 1000	
Cc1ccc2ccccc2c1CN(Cc1ccc(-c2cc(F)c(CO)c(S(=O)(=O)CC(=O)O)c2)cc1)Cc1ccc(C(F)(F)F)o1 [22/7]	100 to 1000	1000 to 10000	100 to 1000	
CN1CCc2nc3ccccc3c(C(=O)N(Cc3ccc(-c4cccc(C(C)(C)C(=O)O)c4)cc3)Cc3ccc(C(F)(F)F)o3)c2C1 [27/80]	100 to 1000	100 to 1000	100 to 1000	
Cc1ccc2ccccc2c1C(=O)N(Cc1ccc(-c2cccc([C@H](C)C(=O)O)c2)cc1)Cc1cccc(C#N)c1 [27/84]	< 100	100 to 1000	< 100	
Cc1nc2ncccc2c(C(=O)N(Cc2ccc(-c3cccc(C(C)(C)C(=O)O)c3)cc2)Cc2ccc(C(F)(F)F)o2)c1C [27/92]	< 100	100 to 1000	100 to 1000	
Cc1nc2ncccn2c1C(=O)N(Cc1ccc(-c2cccc(C(C)(C)C(=O)O)c2)cc1)Cc1ccc(C(F)(F)F)o1 [27/117]	1000 to 10000	1000 to 10000	1000 to 10000	
Cc1ccc2ccccc2c1C(=O)N(Cc1ccc(-c2cncc(C(C)(C)C(=O)O)c2)cc1)Cc1ccc(C(F)(F)F)o1 [27/37]	< 100	100 to 1000	100 to 1000	
Cc1nc2cccnc2c(CN(Cc2ccc(-c3cccc(C(C)(C)C(=O)O)c3)cc2)Cc2ccc(C(F)(F)F)o2)c1C [27/133]	< 100		< 100	C*
Cc1sc2ccccc2c1CN(Cc1ccc(-c2cccc(S(=O)(=O)CC(=O)O)c2)cc1)Cc1ccc(C(F)(F)F)o1 [7/6]	100 to 1000	1000 to 10000	100 to 1000	
Cc1cc(C)c(CN(Cc2ccc(-c3cccc(S(=O)(=O)CC(=O)N(C)O)c3)cc2)Cc2ccc(C(F)(F)F)o2)c(C)c1 [5/2]	< 100	< 100	100 to 1000	
Cc1cnc2ccccc2c1C(=O)N(Cc1ccc(-c2cccc(C(C)(C)C(=O)O)c2)cc1)Cc1ccc(C(F)(F)F)o1 [27/103]	< 100	< 100	< 100	
Cc1ccc2ccccc2c1C(=O)N(Cc1ccc(C(F)(F)F)o1)Cc1ccc(-c2cncc(C(C)(C)C(=O)O)c2)cc1OC(F)F [27/64]	< 100	100 to 1000	100 to 1000	
CCOC(=O)OC(OC(=O)C(C)(C)c1cccc(-c2ccc(CN(Cc3ccc(C(F)(F)F)o3)C(=O)c3c(C)ccc4ccccc34)cc2)c1)C(C)C (stereo not drawn) [Example 31, 1-((Ethoxycarbonyl)oxy)-2-methylpropyl 2-methyl-2-(4′-((2-methyl-N-((5-(trifluoromethyl)furan-2-yl)methyl)-1-naphthamido)methyl)-[1,1′-biphenyl]-3-yl)propanoate]	< 100	1000 to 10000	< 100	
Cc1cc(C)c(C(=O)N(Cc2ccc(-c3cc(F)c(CO)c(S(=O)(=O)CC(=O)O)c3)cc2)Cc2ccc(C(F)(F)F)o2)c(C)c1 [22/13]	100 to 1000	1000 to 10000	100 to 1000	
COc1cc(-c2cncc(S(=O)(=O)CC(=O)O)c2)ccc1CN(Cc1ccc(C(F)(F)F)o1)C(=O)c1c(C)ccc2ccccc12 [27/60]	100 to 1000	1000 to 10000	100 to 1000	

Source: patent US20200131144A1, “AMINE OR (THIO)AMIDE CONTAINING LXR MODULATORS” (Phenex-FXR GmbH, priority 2017, published 2020)
